In patent US20240300927A1, “AMIDES AS CBL-B INHIBITORS” (Genentech, Inc., priority 2021, published 2024):

Legend:
[1] = target: Cbl-b (Homo sapiens (Human), UniProt Q13191); assay: Cbl-b LCK Ub TR-FRET assay (Cbl-b Lck HTRF); type: biochemical; conditions: for (fold-selectivity): Cbl-b and C-Cbl selectivity, Lck HTRF; for IC50: read-out: Cbl-b Lck HTRF IC50
Method: (§1) Compounds were 3-fold serially diluted in DMSO in a 384-well polypropylene plate (#P-05525-BC; Labcyte) to generate a source plate with 10 concentrations of each compound, top concentration=2 mM. 80 nL of DMSO or compounds were transferred to each well of a black 384-well ProxiPlate (#6008260; PerkinElmer) using a Labcyte Echo. 1× assay buffer (50 mM HEPES pH7.0, 100 mM NaCl, 0.01% BSA, 0.01% Triton-X100, 1 mM DTT), 2× enzyme solution (16 nM Biotin-Cbl-b or 12 nM Biotin-c-Cbl in 1× assay buffer), 2× kinase mixture (120 nM His-LCK, 1 mM ATP, 10 mM MgCl2 in assay buffer) and 2.33× detection mixture (4.66× solution 1: 163 nM Anti-HA-D2 antibody (#610HADAB; PerkinElmer), 27.96 nM Streptavidin-EU (#AD0062; PerkinElmer), 1.398 mM EDTA in 1× assay buffer+4.66× solution 2: 2.796 μM UBE2D2/Methylated-HA-Ubiquitin thioester adduct (BostonBiochem) in 1× assay buffer) were prepared. 4 μL of 2× enzyme solution was added to each well containing compound, briefly centrifuged to mix, and incubated for 60 min at room temperature. 4 μL of 2× kinase mixture was added, briefly centrifuged to mix, and incubated for 90 min. at room temperature. 6 μL of detection mixture was added to all wells and briefly centrifuged before incubating for 20 min at room temperature. Plates were read for TR-FRET using an Envision at excitation 340 nm, emission at 615 and 665 nm, 4 flashes per well. IC50 was generated using no LCK as the low control and DMSO as the high control.
(§2) Cbl-b Lck HTRF data in Table 3 is measured according to Example 25 herein; C-cbl Lck HTRF data is measured according to Example 25 herein.
(§3) SPR and the LCK biochemical assay are orthogonal assays: SPR is a protein binding assay while the LCK assay is an enzyme activity assay. SPR measures compound binding affinity to CBL-B/C-CBL, whereas LCK assay measures compound inhibition of CBL-B/C-CBL ubiquitin transfer activity.

[2] = target: c-Cbl (Homo sapiens (Human), UniProt P22681); assay: C-cbl LCK Ub TR-FRET assay (C-cbl Lck HTRF); type: biochemical
Method: as §1, §2, §3

Chain of c-Cbl (P22681 47-435): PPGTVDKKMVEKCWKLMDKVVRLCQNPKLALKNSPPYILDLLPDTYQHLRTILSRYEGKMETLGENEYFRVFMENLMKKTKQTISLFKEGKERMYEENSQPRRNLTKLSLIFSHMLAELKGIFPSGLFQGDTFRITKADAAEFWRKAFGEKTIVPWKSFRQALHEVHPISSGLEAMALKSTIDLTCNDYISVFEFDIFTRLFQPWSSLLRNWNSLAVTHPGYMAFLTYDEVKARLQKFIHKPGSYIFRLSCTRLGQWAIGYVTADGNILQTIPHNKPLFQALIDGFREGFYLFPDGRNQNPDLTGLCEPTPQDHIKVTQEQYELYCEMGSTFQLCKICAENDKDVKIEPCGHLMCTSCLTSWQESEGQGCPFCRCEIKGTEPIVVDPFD
Chain of Cbl-b (Q13191 40-426): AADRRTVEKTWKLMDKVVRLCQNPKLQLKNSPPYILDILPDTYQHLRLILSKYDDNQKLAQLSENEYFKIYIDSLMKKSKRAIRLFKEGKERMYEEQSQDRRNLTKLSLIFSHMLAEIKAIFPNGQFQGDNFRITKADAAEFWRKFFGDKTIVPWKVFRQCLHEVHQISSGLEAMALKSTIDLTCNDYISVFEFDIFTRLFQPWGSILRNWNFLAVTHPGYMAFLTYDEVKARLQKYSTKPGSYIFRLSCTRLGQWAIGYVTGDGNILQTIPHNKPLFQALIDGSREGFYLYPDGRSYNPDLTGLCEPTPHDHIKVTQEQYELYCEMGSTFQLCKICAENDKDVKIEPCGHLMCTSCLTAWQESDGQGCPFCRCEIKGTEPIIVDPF

| SMILES | (fold-selectivity) [1] | IC50 [1] | IC50 [2] |
| --- | --- | --- | --- |
| Cn1cnnc1[C@@H](F)C(C)(F)c1cccc(NC(=O)c2cc(CN3CC(C)(F)C3)nc(C3CC3)n2)c1 (stereo in doubt) [Compound 46, 2-cyclopropyl-N-(3-((1R,2R)-1,2-difluoro-1-(4-methyl-4H-1,2,4-triazol-3-yl)propan-2-yl)phenyl)-6-((3-fluoro-3-methylazetidin-1-yl)methyl)pyrimidine-4-carboxamide] | (1.9x) | 420 nM | 800 nM |
| CC(C)[C@H]1CN(C)CCN1Cc1cc(C(=O)Nc2cccc(C3([C@@H](F)c4nncn4C)COC3)c2)nc(C2CC2)c1 [Compound 499, 6-cyclopropyl-N-(3-(3-((R)-fluoro(4-methyl-4H-1,2,4-triazol-3-yl)methyl)oxetan-3-yl)phenyl)-4-(((S)-2-isopropyl-4-methylpiperazin-1-yl)methyl)picolinamide] | (0.63x) | 11 nM | 7 nM |
| Cn1cnnc1[C@H](F)[C@](C)(F)c1cccc(NC(=O)c2cc(CN3CCC4(CC4)C3)cc(C3CC3)n2)c1 [Compound 35, 4-(5-azaspiro[2.4]heptan-5-ylmethyl)-6-cyclopropyl-N-(3-((1S,2R)-1,2-difluoro-1-(4-methyl-4H-1,2,4-triazol-3-yl)propan-2-yl)phenyl)picolinamide] | (1.8x) | 23 nM | 400 nM |
| C[C@H](c1cc(C(=O)Nc2cccc(C3(Cc4nncn4C)COC3)c2)nc(C(F)(F)F)c1)N1CC(F)C1 [Compound 2, (R)-4-(1-(3-fluoroazetidin-1-yl)ethyl)-N-(3-(3-((4-methyl-4H-1,2,4-triazol-3-yl)methyl)oxetan-3-yl)phenyl)-6-(trifluoromethyl)picolinamide] | (1.7x) | 220 nM | 370 nM |
| Cn1cnnc1[C@@H](F)C1(c2cccc(NC(=O)c3cc(CN4CC(C)(F)C4)cc(C4CC4)n3)c2)COC1 [Compound 8, (S)-6-cyclopropyl-N-(3-(3-(fluoro(4-methyl-4H-1,2,4-triazol-3-yl)methyl)oxetan-3-yl)phenyl)-4-((3-fluoro-3-methylazetidin-1-yl)methyl)picolinamide] | (2.0x) | 30 nM | 60 nM |
| C[C@@H](c1cc(C(=O)Nc2cccc(C3(Cc4nncn4C)COC3)c2)nc(C(F)(F)F)c1)N1CC(F)C1 [Compound 1, (S)-4-(1-(3-fluoroazetidin-1-yl)ethyl)-N-(3-(3-((4-methyl-4H-1,2,4-triazol-3-yl)methyl)oxetan-3-yl)phenyl)-6-(trifluoromethyl)picolinamide] | (2.2x) | 110 nM | 250 nM |
| Cn1cnnc1[C@@H](F)[C@@](C)(F)c1cccc(NC(=O)c2cc(CN3CCC4(CC4)C3)cc(C3CC3)n2)c1 [Compound 37, 4-(5-azaspiro[2.4]heptan-5-ylmethyl)-6-cyclopropyl-N-(3-((1R,2S)-1,2-difluoro-1-(4-methyl-4H-1,2,4-triazol-3-yl)propan-2-yl)phenyl)picolinamide] | (2.0x) | 780 nM | 1500 nM |
| Cn1cnnc1[C@@H](F)C1(c2cccc(NC(=O)c3cc(CN)cc(C(F)(F)F)n3)c2)COC1.O=CO [Compound 65, (S)-4-(aminomethyl)-N-(3-(3-(fluoro(4-methyl-4H-1,2,4-triazol-3-yl)methyl)oxetan-3-yl)phenyl)-6-(trifluoromethyl)picolinamide formate] | (1.2x) | 200 nM | 230 nM |
| C[C@H](c1cc(C(=O)Nc2cccc(C3(Cc4nncn4C)COC3)c2)nc(C(F)(F)F)c1)N1CCC2(CC2)C1 [Compound 4, (R)-4-(1-(5-azaspiro[2.4]heptan-5-yl)ethyl)-N-(3-(3-((4-methyl-4H-1,2,4-triazol-3-yl)methyl)oxetan-3-yl)phenyl)-6-(trifluoromethyl)picolinamide] | (1.9x) | 67 nM | 130 nM |
| Cn1cnnc1[C@H](F)[C@@](C)(F)c1cccc(NC(=O)c2cc(CN3CCC4(CC4)C3)nc(C3CC3)n2)c1 [Compound 40, 6-(5-azaspiro[2.4]heptan-5-ylmethyl)-2-cyclopropyl-N-(3-((1S,2S)-1,2-difluoro-1-(4-methyl-4H-1,2,4-triazol-3-yl)propan-2-yl)phenyl)pyrimidine-4-carboxamide] | (2.3x) | 880 nM | 2100 nM |
| Cn1cnnc1CC1(c2cccc(NC(=O)c3cc(CC(N)=O)cc(C(F)(F)F)n3)c2)COC1 [Compound 507, 4-(2-amino-2-oxoethyl)-N-(3-(3-((4-methyl-4H-1,2,4-triazol-3-yl)methyl)oxetan-3-yl)phenyl)-6-(trifluoromethyl)picolinamide] | (0.89x) | 100 nM | 89 nM |
| C[C@H](Cc1nncn1C)c1cccc(NC(=O)c2nc(C(F)(F)F)cn2C)c1 [Compound 121, (R)-1-methyl-N-(3-(1-(4-methyl-4H-1,2,4-triazol-3-yl)propan-2-yl)phenyl)-4-(trifluoromethyl)-1H-imidazole-2-carboxamide] | (0.67x) | 4400 nM | 2900 nM |
| C[C@H](c1cc(C(=O)Nc2cccc(C3([C@@H](F)c4nncn4C)COC3)c2)nc(C2CC2)c1)N1CCC2(CC2)C1 [Compound 23, 4-((R)-1-(5-azaspiro[2.4]heptan-5-yl)ethyl)-6-cyclopropyl-N-(3-(3-((R)-fluoro(4-methyl-4H-1,2,4-triazol-3-yl)methyl)oxetan-3-yl)phenyl)picolinamide] | (0.94x) | 50 nM | 47 nM |
| CC(C)[C@H]1CN(C)CCN1Cc1cc(C(=O)Nc2cccc(C3(Cc4nncn4C)COC3)c2)nc(C2CC2)c1 [Compound 498, (S)-6-cyclopropyl-4-((2-isopropyl-4-methylpiperazin-1-yl)methyl)-N-(3-(3-((4-methyl-4H-1,2,4-triazol-3-yl)methyl)oxetan-3-yl)phenyl)picolinamide] | (0.62x) | 10 nM | 6.2 nM |
| C[C@@H](c1cc(C(=O)Nc2cccc(C3([C@@H](F)c4nncn4C)COC3)c2)nc(C2CC2)c1)N1CCC2(CC2)C1 [Compound 22, 4-((S)-1-(5-azaspiro[2.4]heptan-5-yl)ethyl)-6-cyclopropyl-N-(3-(3-((R)-fluoro(4-methyl-4H-1,2,4-triazol-3-yl)methyl)oxetan-3-yl)phenyl)picolinamide] | (0.87x) | 12 nM | 10 nM |
| Cn1cnnc1[C@@H](F)C1(c2cccc(NC(=O)c3cc(CN4CCC5(CC5)C4)nc(C4CC4)n3)c2)COC1 [Compound 63, (S)-6-((5-azaspiro[2.4]heptan-5-yl)methyl)-2-cyclopropyl-N-(3-(3-(fluoro(4-methyl-4H-1,2,4-triazol-3-yl)methyl)oxetan-3-yl)phenyl)pyrimidine-4-carboxamide] | (1.1x) | 170 nM | 180 nM |
| C[C@@H](c1cc(C(=O)Nc2cccc(C3([C@H](F)c4nncn4C)COC3)c2)nc(C2CC2)c1)N1CCC2(CC2)C1 [Compound 24, 4-((S)-1-(5-azaspiro[2.4]heptan-5-yl)ethyl)-6-cyclopropyl-N-(3-(3-((S)-fluoro(4-methyl-4H-1,2,4-triazol-3-yl)methyl)oxetan-3-yl)phenyl)picolinamide] | (0.92x) | 63 nM | 58 nM |
